From paper PMC9848257, “Design and synthesis of novel rigid dibenzo[b,f]azepines through ring closure technique as promising anticancer candidates against leukaemia and acting as selective topoisomerase II inhibitors and DNA intercalators” (Journal of Enzyme Inhibition and Medicinal Chemistry, 2023)

How the values were obtained:
SR cells [1] = assay: Cell cycle analysis (propidium iodide staining); assay type: cell-based
Experimental: This test was performed using propidium iodide (PI) staining following the detailed procedure in the supporting information (SI 3)[38].
The topoisomerase II inhibitory evaluation, besides the cytotoxicity results of the new compounds, encouraged us to assess the effect of 5e (the most promising candidate) on cell cycle progression in SR cells.
(§1) SI 3. Cell cycle analysis
(§2) Leukemia SR cells were grown in six-well plates (each one contains 2 x 10^5 cells per well) containing 10% fetal bovine serum and incubated for 24 h at 37 °C and 5% CO2. The medium was replaced with (DMSO 1% v/v) containing the 3.1 µM of compound 5e, then incubated for 48 h, collected and washed with cold phosphate buffered saline (PBS). After fixation of the collected cells with ice-cold absolute ethanol (70%), the cells were rinsed with PBS then stained with the DNA fluorochrome PI, kept for 15 min at 37 °C. Then samples were analyzed with a FACS Caliber flow cytometer.
(§3) SI 4. Detection of apoptosis
(§4) Apoptotic activity of compound 5e was evaluated using Annexin V-FITC/PI apoptosis detection kit.
(§5) Leukemia SR cells ([…]) were seeded and incubated with compound 5e for 48 h, trypsinized, collected and washed with phosphate-buffered saline (PBS) several times; SR cells were stained with Annexin V fluorescein isothiocyanate (FITC) and counterstained with propidium iodide (PI) for 15 min at 37 °C in the dark using the apoptosis detection kit (BD Biosciences, San Jose, CA) according to the manufacturer's protocol. Then, Annexin V-FITC and PI binding were analysed by a FACS Caliber flow cytometer.
(§6) SI 5.1. Animals and tumor cell line
(§7) Adult female Swiss albino mice purchased from Theodor Bilharzia Research Institute, Giza, Egypt, with an average body weight of (18-23) g was used. Mice were housed under constant conditions of 12 h light/dark cycle in a […], with free access to standard laboratory mice food and water. […]

SR cells [2] = assay: Apoptosis analysis (Annexin-V staining assay); assay type: cell-based
Experimental: The apoptotic analysis was performed according to the detailed description in the supporting information (SI 4)[39].
Annexin-V staining assay was applied to determine the apoptosis induced by compound 5e. […] In detail, 13.61% and 24.33% for the early phase and late phase of apoptosis, respectively, with respect to the control (0.44%, and 0.16%, respectively). Annexin V/PI staining histograms are supported in the supporting information (Figure SI 2).
as §1, §2, §3, §4, §5, §6, §7

[3] = tested on: Solid Ehrlich carcinoma (SEC); assay: In vivo anti-tumour activity in SEC-bearing mice; design: species or system Swiss albino mice; conditions: 6 mg/Kg B.W., IP
Experimental: (§8) The full methodology of tumour induction, treatments, and blood measurements was carried out according to the described details in the supporting information (SI 5). Moreover, the experimental protocol was approved by the Research Ethics Committee at Suez Canal University (Approval number REC139/2022, Chemistry Department, Faculty of Science, Suez Canal University). […]
as §6
Adult female Swiss albino mice purchased from Theodor Bilharzia Research Institute, Giza, Egypt, with an average body weight of (18-23) g was used. Mice were housed under constant conditions of 12 h light/dark cycle in a […], with free access to standard laboratory mice food and water.
All procedures related to care and maintenance of the animals were performed according to the international guiding principles for animal research and approved by Faculty of Science, Suez Canal University bioethics and animal ethics committee (Approval number REC-01-2022).
Solid Ehrlich carcinoma (SEC) were got from the National Cancer Institute (Cairo University, Egypt). The tumor cell line was proliferated in mice through serial intraperitoneal (I.P.) transplantation of a volume of 0.2 mL physiological saline contains 1 × 10^6 viable cells for 24 h. SEC cells were collected 7 days after I.P. implantation. The harvested cells were diluted with saline to obtain a concentration of 5 × 10^6 viable SEC cells/mL. A volume of 0.2 mL saline contains 1 × 10^6 SEC cells […]
(§9) that were I.P. implanted into each normal mouse. SEC cells (1 × 10^6 tumor cells/mouse) were implanted subcutaneously into the right thigh of the hind limb.
(§10) The experimental animals were randomly divided into four groups. Group 1 served as the normal saline control. Group 2 served as the SEC control (1 × 10^6 cells/mouse). Group 3 served as the compound-treated group (6 mg/kg B.Wt., I.P.). Group 4 received the standard anticancer drug of […]
(§11) survival were recorded daily until the 24th day in both treated and control groups. At the end of experiment, the blood of each group was collected under light anesthesia for estimation of hematological and biochemical assays. The anesthetized animals were then sacrificed for evaluation of the antitumor activity and histopathological examination.
SI 5.2. Antitumor potentiality
It includes tumor volume, weight, and tumor inhibition ration (TIR%). Time interval measurements of tumor volume using digital Vernier caliper (Tricle Brand, Shanghai, China). Measure tumor length and width using clipper and then calculate tumor volume using formulations V = (L x W x W)/2, where V is tumor volume, W is tumor width, L is tumor length. While TIR% was calculated according to the following equation: […]. […]

[4] = Liver enzymes (ALT, AST) in SEC-bearing mice; assay type: in vivo, Swiss albino mice; conditions: 6 mg/Kg B.W., IP
Experimental: as §8, §9, §10
as §11, with “examination. […]” for “examination.”
At the end of the experiment, animals from different groups were sacrificed, and blood samples were collected for determination of liver enzymes ALT, AST levels. Activities of aspartate aminotransferase (AST) and alanine aminotransferase (ALT) were evaluated using commercial kits (ELITech clinical systems, France). […]

O=[N+]([O-])c1ccc(-c2nnc(N3c4ccccc4C=Cc4ccccc43)o2)cc1 [Compound 5e, 2-(5 h-Dibenzo[b,f]azepin-5-yl)-5–(4-nitrophenyl)-1,3,4-oxadiazole]
Cell cycle arrest phase (SR cells [1]): G1 phase
Cell levels in G1 phase (SR cells [1]; 3.1 µM of compound 5e, 48 h, control 52.84%): 61.29%
S phase % of the examined cells (SR cells [1]; 3.1 µM of compound 5e, 48 h, untreated 34.18%): 36.86%
Increase of the apoptosis ratio compared to the untreated cells (SR cells [2]; concentration equivalent to IC50 (13.05 µM), 48 h): 37.34%
Late phase of apoptosis (SR cells [2]; concentration equivalent to IC50, control 0.16%): 24.33%
Early phase of apoptosis (SR cells [2]; concentration equivalent to IC50, control 0.44%): 13.61%
Tumour inhibition ratio (TIR%) [3]: 62.7%
Solid tumour mass ([3]; SEC control 226 mg): 96.3 mg
Tumour volume ([3]; SEC control 80.6 mm^3): 30.1 mm^3
ALT ([4]; SEC control 65.9 U/L): 39.8 U/L
AST ([4]; SEC control 71 U/L): 35.6 U/L
